According to publication PMC4972714 (Bioorganic & medicinal chemistry, 2016):

Key:
[1] = system: HIV-1 RRE IIB RNA; test: Dot blot assay, binding to RRE IIB RNA; conditions: dot blot Kd relative to BPBA3
[2] = system: HIV-1 NL4-3 in U87-CD4/CXCR4 cells; test: Viral replication assay, p24 read-out; type: cell-based; conditions: 10 µM, infection over several days, NL4-3 in U87-CD4/CXCR4 cells (Fig. 1A)
[3] = biological target: HIV-1 RRE IIB RNA; conditions: native Rev protein with RRE; ref [26], [58]; cited from earlier work

Molecule: FBPAYFBPA*NKSY [LBPBA3A]
- loss in binding affinity towards RRE IIB versus BPBA3 [1]: 2 fold

Molecule: FBPAYFBPAFBPAYFBPA*NKSY [LBPBA3B]
- loss in binding affinity towards RRE IIB versus BPBA3 [1]: 3 fold

Molecule: Nc1ccn([C@@H]2CS[C@H](CO)O2)c(=O)n1 [3TC, 2′,3′-dideoxy-3′-thiacytidine]
- HIV-1 replication screening, p24 expression [2]: completely abolished p24 expression

Molecule: Elvitegravir
- HIV-1 replication screening, p24 expression [2]: completely abolished p24 expression

Molecule: Cc1cn([C@H]2C[C@H](N=[N+]=[N-])[C@@H](CO)O2)c(=O)[nH]c1=O [AZT, azidothymidine]
- HIV-1 replication screening, p24 expression [2]: completely abolished p24 expression

Molecule: Raltegravir
- HIV-1 replication screening, p24 expression [2]: completely abolished p24 expression

Molecule: Rev protein: native HIV-1 Rev protein that binds RRE
- dissociation constant with RRE [3]: low nanomolar range
